Source: patent US20100256379A1, “ANTI-VIRAL AGENT CONTAINING HETEROCYCLIC AROMATIC COMPOUND AS ACTIVE INGREDIENT” (Kagoshima University, priority 2007, published 2010)
pEC50: −log10 of the molar value. Where two headings read alike, the source gives them in different places. Marks after values point to notes of the source that are not given here.

Experiments:
[1] = tested on: Bovine viral diarrhea virus (BVDV) Nose strain; assay: Anti-BVDV activity: inhibition of viral replication in BVDV-infected MDBK cells (LDH in culture supernatant); format: cell-based; details: for pEC50: Bovine viral diarrhea virus isolates and strains, 72 h, read-out: EC50 (50% effective concentration, 50% inhibition of viral replication); for Selectivity index (CC50/EC50): CC50 in uninfected MDBK cells / EC50 against BVDV; for anti-BVDV effects (in words): summary statements on the tables
Source text: The antiviral activity of the compound according to the present invention can be evaluated by a method that involves infecting cells with a virus, adding the compound according to the present invention to medium before, after, or simultaneously with infection, and then measuring the percent inhibition of viral replication. Specifically, such percent inhibition of viral replication can be evaluated by measuring the activity of lactate dehydrogenase (LDH) in the culture supernatant of the virus-infected cells using an LDH cytotoxicity detection kit (Takara Biochemicals), for example. LDH is an enzyme that exists in the cytoplasm and is generally almost never released extracellularly because of the presence of cell membrane. Meanwhile, when cells are infected with a virus and then the virus replicated within the cells, infected cells die. As a result of viral infection, cell membrane is disrupted and then LDH is released into the culture supernatant. […] That is, the degree of cell disruption due to viral replication and the LDH level in the culture supernatant show extremely good positive correlation. Therefore, the antiviral activity (inhibition of viral replication) of the compound according to the present invention can be measured via quantitative determination of LDH in the culture supernatant.
Furthermore, the selectivity index (CC50/EC50) is calculated. The higher the selectivity index, the higher the effects of inhibiting viral replication alone without damaging cells. Therefore, the antiviral activity of the compound according to the present invention can be evaluated using the selectivity index as an index. Also, the antiviral activity of the compound according to the present invention can be evaluated by assay (e.g., Western blot analysis, ELISA, or flow cytometry) for measuring the viral antigen level in virus-infected cells cultured in medium containing the compound according to the present invention or assay (e.g., Northern blot analysis or quantitative RT-PCR) for measuring the virus gene (RNA) level in virus-infected cells.
1) Cell: Madin-Darby bovine kidney cell (hereinafter, referred to as “MDBK cell”);
2) Virus: Bovine viral diarrhea virus (hereinafter, referred to as “BVDV”) Nose strain;
MDBK cells (2×10^5 cells/ml) were infected with BVDV at an MOI of 0.01 (multiplicity of infection, MOI=0.01). Next, a solution containing BVDV-infected cells was dispensed into a 96-well flat bottom microtiter plate at 100 μl per well, simultaneously with the addition of a compound subjected to 5-fold serial dilution, followed by 3 days of culture at 37° C. (5% CO2).
After 3 days of culture, 50 μl of the cultured supernatant was collected and then transferred to another microtiter plate and then 50 μl of the reaction solution of an LDH cytotoxicity detection kit was added. After 30 minutes of culture at room temperature, the microtiter plate was applied to a microplate reader (BioRad Laboratories) and then absorbance was measured at 490 nm/690 nm.
The percent inhibition (%) of viral replication was calculated by the following formula based on the thus obtained absorbance:
100−[(ODT)V−(ODC)M]/[(ODC)V−(ODC)M]×100(%)

[2] = tested on: Madin-Darby bovine kidney cell (MDBK cell); assay: Cytotoxicity: inhibition of growth of uninfected MDBK cells (TetraColor One MTT); format: cell-based
Procedure: (§1) Also, after addition of the compound according to the present invention to medium containing cells not infected with any virus, the percent inhibition of cell growth of the compound according to the present invention is measured. For example, with the use of a reagent for viable cell measurement, such as a water soluble MTT solution TetraColor One™ (Seikagaku Corporation), the percent inhibition of cell growth can be measured.
(§2) At the same time, for measurement of toxicity of each compound, the compound was added to a microtiter plate containing MDBK cells not infected with the virus as described above, followed by 3 days of culture. After 3 days of culture, TetraColor One™ was added to a microtiter plate at 10 μl per well. After 1 hour of incubation at 37° C., the microtiter plate was applied to a microplate reader and then absorbance was measured at 450 nm/690 nm.
(§3) The percent inhibition (%) of cell growth was calculated by the following formula based on the thus obtained absorbance: […]

[3] = as above; format: cell-based, bovine; details: bovine
Procedure: as §1, §2, §3

[4] = BVDV-infected MDBK cells, MOI 0.01, 3 days of culture, LDH readout, mean of at least two experiments
[5] = read-out: CC50 (50% cytotoxicity concentration, 50% inhibition of cell growth), uninfected MDBK cells, 3 days of culture, MTT readout, mean of at least two experiments

| Compound | pEC50 [1, 4] | Selectivity index (CC50/EC50) [1] | CC50 ([2]; bovine, 3 days) [µM] | CC50 at 3 days [3] [µM] | anti-BVDV effects (in words) [1] | also measured |
| --- | --- | --- | --- | --- | --- | --- |
| Cc1cccc2[nH]c3ccncc3c12 [Compound 9] | 5.92 | 13.3 | 16 | – | – | – |
| Cc1cncc2c1[nH]c1ccccc12 [Compound 4] | 6.26 | 38.2 | 21 | – | – | – |
| Cn1ccc2nc3ccccc3c-2c1 [Compound 2] | 5.37 | 15.1 | 65 | – | – | – |
| Cc1nccc2[nH]c3ccccc3c12 [Compound 1] | 6.24 | 16.7 | 9.7 | – | – | – |
| Cc1ccc2[nH]c3ccncc3c2c1 [Compound 8] | 5.52 | 4 | 12 | – | – | – |
| Cc1ccc2c3cnccc3n(C)c2c1 [Compound 14] | 6.52 | 133.3 | – | 40 | – | – |
| Cc1ccc2c(c1)c1cnccc1n2C [Compound 15] | 6.46 | 22.0 | – | 7.7 | – | – |
| c1ccc2c(c1)[nH]c1ncccc12 [α-Carboline, reference compound] | 4.04 | >1.1 | > 100 | – | lower than those of β-carboline and γ-carboline | – |
| Cc1cc2[nH]c3ccccc3c2cn1 [Compound 3] | 5.66 | 31.8 | 70 | – | – | – |
| c1ccc2c(c1)[nH]c1ccncc12 [γ-Carboline] | 5.68 | 19.5 | – | 41 | selective anti-BVDV effects | – |
| c1ccc2c(c1)[nH]c1cnccc12 [β-Carboline] | – | 10.2 | – | – | selective anti-BVDV effects | pEC50 ([1]; MDBK): 5.07; CC50 at 3 days ([3]; uninfected MDBK cells, 3 days of culture, MTT readout, mean of at least two experiments): 87 µM |
| Cc1cccc2c1[nH]c1ccncc12 [Compound 6] | 5.77 | 14.1 | 24 | – | – | – |
| c1ccc2c(c1)oc1ccccc12 [Dibenzofuran, reference compound] | – | – | – | – | – | pEC50 ([1]; MDBK): < 4.00; CC50 [2, 5]: > 100 µM |
| Cc1cccc2c3cnccc3n(C)c12 [Compound 13] | 6.52 | 36.7 | – | 11 | – | – |
| Cc1cccc2c1c1cnccc1n2C [Compound 16] | 6.54 | 22.1 | – | 6.4 | – | – |
| c1ccc2c(c1)[nH]c1ccccc12 [Carbazole, reference compound] | – | – | – | – | – | pEC50 ([1]; MDBK): < 4.00; CC50 [2, 5]: > 100 µM |
| c1ccc2c(c1)Cc1ccccc1-2 [Fluorene, reference compound] | < 4.00 | – | > 100 | – | – | – |
| Cc1nccc2c1c1ccccc1n2C [Compound 10] | 6.70 | 26.0 | – | 5.2 | – | – |
| Cn1c2ccccc2c2cnccc21 [Compound 5] | 6.59 | 111.5 | 29 | – | strongest activity and the highest selectivity | – |
| Interferon-α | – | – | – | – | – | EC50 (50% effective concentration, 50% inhibition of viral replication) ([1]; interferon-α, BVDV-infected MDBK cells, MOI 0.01, 3 days, LDH readout): 5.5* IU/well |
| NC(=O)c1ncn([C@@H]2O[C@H](CO)[C@@H](O)[C@H]2O)n1 [Ribavirin, 1-β-D-ribofuranousyl-1,2,4-triazole-3-carboxamide, reference compound] | 5.41 | – | – | 15.1 | selective anti-BVDV effects | – |
| Cc1ccc2c(c1)[nH]c1ccncc12 [Compound 7] | 5.96 | 21.8 | 24 | – | – | – |
| c1ccc2c(c1)[nH]c1cccnc12 [δ-Carboline, reference compound] | < 4.00 | – | > 100 | – | lower than those of β-carboline and γ-carboline | – |
| Cc1cncc2c3ccccc3n(C)c12 [Compound 12] | 7.37 | 223.2 | – | 9.6 | strongest activity and high selectivity | – |
| Cc1cc2c(cn1)c1ccccc1n2C [Compound 11] | 7.21 | 338.7 | – | 21 | activity equivalent to that of compound 12 and the highest selectivity | – |
